The values below come from patent US12594276B2, “Inhibitors of human immunodeficiency virus replication” (ViiV Healthcare UK (No.5) Limited, priority 2024, dated 2026).

By EC50 is commonly meant the concentration giving half of the maximal effect. As usually defined, the CC50 is the concentration at which the toxic effect on the cells reaches its halfway point.

Data set [1] deals with recombinant NL4-3 virus (nef section replaced with Renilla luciferase gene) in MT-2 cells. The data set can be described thus: HIV cell culture assay (antiviral activity, luciferase readout). The class given is cell-based. Conditions: Renilla, NL43, MT-2 cells infected for 4-5 days with recombinant NL4-3 Renilla luciferase virus. In short, it runs like this: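 The reporter virus was produced by transfecting 293T cells with the NL4-3 nef/Renilla luciferase proviral clone. MT-2 cells were infected for 4–5 days with serial compound dilutions present. Luciferase was read with a live-cell substrate, and EC50 came from the exponential median-effect equation.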

Data set [2] in a line: Compound cytotoxicity, XTT-based colorimetric assay. Conditions: human; uninfected MT2 cells, day 4, XTT; read-out: CC50. The class given is cell-based. In short, it runs like this: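 Cells seeded as for the antiviral assay but left uninfected (MT2). Compound exposure continued to day 4. XTT reagent added and colour read. CC50 calculated.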
A general note: Tetrazolium dyes change colour on reduction, which living cells bring about.

With `COCCCn1nc(NS(C)(=O)=O)c2c(Cl)ccc(-n3c([C@H](Cc4cc(F)cc(F)c4)NC(=O)Cn4nc(C(F)F)c5c4C(F)(F)[C@@H]4C[C@H]54)nc4nc(C5CCC(F)(F)CC5)cc(NCCN5CCOC(C)(C)C5)c4c3=O)c21` (atropisomer, axis not shown; (P)) [Example 476, N-[(1S)-1-[(3P)-3-[4-chloro-3-methanesulfonamido-1-(3-methoxypropyl)-1H-indazol-7-yl]-7-(4,4-difluorocyclohexyl)-5-{[2-(2,2-dimethylmorpholin-4-yl)ethyl]amino}-4-oxo-3H,4H-pyrido[2,3-d]pyrimidin-2-yl]-2-(3,5-difluorophenyl)ethyl]-2-[(2S,4R)-9-(difluoromethyl)-5,5-difluoro-7,8-diazatricyclo[4.3.0.0^2,^4]nona-1(6),8-dien-7-yl]acetamide], in data set [1], the EC50 came to 0.005 nM. Besides, the CC50 at 4 days in data set [2] was greater than 20 nM.

On to `COCCCn1nc(NS(C)(=O)=O)c2c(Cl)ccc(-n3c([C@H](Cc4cc(F)cc(F)c4)NC(=O)Cn4nc(C(F)F)c5c4C(F)(F)[C@@H]4C[C@H]54)nc4nc(C5CCC(F)(F)CC5)cc(NCCN5CCOCC5(C)C)c4c3=O)c21` (atropisomer, axis not shown; (P)) [Example 477, N-[(1S)-1-[(3P)-3-[4-chloro-3-methanesulfonamido-1-(3-methoxypropyl)-1H-indazol-7-yl]-7-(4,4-difluorocyclohexyl)-5-{[2-(3,3-dimethylmorpholin-4-yl)ethyl]amino}-4-oxo-3H,4H-pyrido[2,3-d]pyrimidin-2-yl]-2-(3,5-difluorophenyl)ethyl]-2-[(2S,4R)-9-(difluoromethyl)-5,5-difluoro-7,8-diazatricyclo[4.3.0.0^2,^4]nona-1(6),8-dien-7-yl]acetamide], for which, in data set [1], the EC50 is 0.013 nM. Moreover, in data set [2], the CC50 at 4 days is greater than 20 nM.

On to `Cc1cc(C2CCC(F)(F)CC2)nc2nc([C@H](Cc3cc(F)cc(F)c3)NC(=O)Cn3nc(C(F)F)c4c3C(F)(F)[C@@H]3C[C@H]43)n(-c3ccc(Cl)c4c(NS(C)(=O)=O)nn(CCN5CCOC(C)(C)C5)c34)c(=O)c12` (atropisomer, axis not shown; (P)) [Example 479, N-[(1S)-1-[(3P)-3-{4-chloro-1-[2-(2,2-dimethylmorpholin-4-yl)ethyl]-3-methanesulfonamido-1H-indazol-7-yl}-7-(4,4-difluorocyclohexyl)-5-methyl-4-oxo-3H,4H-pyrido[2,3-d]pyrimidin-2-yl]-2-(3,5-difluorophenyl)ethyl]-2-[(2S,4R)-9-(difluoromethyl)-5,5-difluoro-7,8-diazatricyclo[4.3.0.0^2,^4]nona-1(6),8-dien-7-yl]acetamide], for which the EC50 in data set [1] came out at 0.004 nM. Further, the CC50 at 4 days in data set [2] was greater than 20 nM.

On to `Cc1cc(C2CCC(F)(F)CC2)nc2nc([C@H](Cc3cc(F)cc(F)c3)NC(=O)Cn3nc(C4CC4)c4c3C[C@@H]3C[C@H]43)n(-c3ccc(Cl)c4c(NS(C)(=O)=O)nn(CCN5CCOC(C)(C)C5)c34)c(=O)c12` (atropisomer, axis not shown; (P)) [Example 480, N-[(1S)-1-[(3P)-3-{4-chloro-1-[2-(2,2-dimethylmorpholin-4-yl)ethyl]-3-methanesulfonamido-1H-indazol-7-yl}-7-(4,4-difluorocyclohexyl)-5-methyl-4-oxo-3H,4H-pyrido[2,3-d]pyrimidin-2-yl]-2-(3,5-difluorophenyl)ethyl]-2-[(2S,4S)-9-cyclopropyl-7,8-diazatricyclo[4.3.0.0^2,^4]nona-1(6),8-dien-7-yl]acetamide], for which, in data set [1], the EC50 turned out to be 0.005 nM. For the same compound, the CC50 at 4 days in data set [2] is greater than 20 nM.

Consider `COCCCn1nc(NS(C)(=O)=O)c2c(Cl)ccc(-n3c([C@H](Cc4cc(F)cc(F)c4)NC(=O)Cn4nc(C(F)F)c5c4C(F)(F)[C@@H]4C[C@H]54)nc4nc(C5CCC(F)(F)CC5)cc(NCC5(F)CCOCC5)c4c3=O)c21` (atropisomer, axis not shown; (P)) [Example 484, N-[(1S)-1-[(3P)-3-[4-chloro-3-methanesulfonamido-1-(3-methoxypropyl)-1H-indazol-7-yl]-7-(4,4-difluorocyclohexyl)-5-{[(4-fluorooxan-4-yl)methyl]amino}-4-oxo-3H,4H-pyrido[2,3-d]pyrimidin-2-yl]-2-(3,5-difluorophenyl)ethyl]-2-[(2S,4R)-9-(difluoromethyl)-5,5-difluoro-7,8-diazatricyclo[4.3.0.0^2,^4]nona-1(6),8-dien-7-yl]acetamide], for which the concentration for a half-maximal effect (EC50) in data set [1] amounted to 0.006 nM. Moreover, the CC50 at 4 days in data set [2] was greater than 20 nM.

Take `COCCCn1nc(NS(C)(=O)=O)c2c(Cl)ccc(-n3c([C@H](Cc4cc(F)cc(F)c4)NC(=O)Cn4nc(C(F)F)c5c4C(F)(F)[C@@H]4C[C@H]54)nc4nc(C5CCC(F)(F)CC5)cc(NCC5(C)CCOCC5)c4c3=O)c21` (atropisomer, axis not shown; (P)) [Example 485, N-[(1S)-1-[(3P)-3-[4-chloro-3-methanesulfonamido-1-(3-methoxypropyl)-1H-indazol-7-yl]-7-(4,4-difluorocyclohexyl)-5-{[(4-methyloxan-4-yl)methyl]amino}-4-oxo-3H,4H-pyrido[2,3-d]pyrimidin-2-yl]-2-(3,5-difluorophenyl)ethyl]-2-[(2S,4R)-9-(difluoromethyl)-5,5-difluoro-7,8-diazatricyclo[4.3.0.0^2,^4]nona-1(6),8-dien-7-yl]acetamide]: the EC50 in data set [1] was 0.016 nM. For the same compound, the CC50 at 4 days in data set [2] was greater than 20 nM.

Turning to `COCCCn1nc(NS(C)(=O)=O)c2c(Cl)ccc(-n3c([C@H](Cc4cc(F)cc(F)c4)NC(=O)Cn4nc(C(F)F)c5c4C(F)(F)[C@@H]4C[C@H]54)nc4nc(C5CCC(F)(F)CC5)cc(CN5C[C@H](F)C[C@H](F)C5)c4c3=O)c21` (atropisomer, axis not shown; (P)) [Example 488, N-[(1S)-1-[(3P)-3-[4-chloro-3-methanesulfonamido-1-(3-methoxypropyl)-1H-indazol-7-yl]-7-(4,4-difluorocyclohexyl)-5-{[(3R,5S)-3,5-difluoropiperidin-1-yl]methyl}-4-oxo-3H,4H-pyrido[2,3-d]pyrimidin-2-yl]-2-(3,5-difluorophenyl)ethyl]-2-[(2S,4R)-9-(difluoromethyl)-5,5-difluoro-7,8-diazatricyclo[4.3.0.0^2,^4]nona-1(6),8-dien-7-yl]acetamide], the EC50 in data set [1] turned out to be 0.009 nM. The CC50 at 4 days in data set [2] was greater than 20 nM.

`COCCCn1nc(NS(C)(=O)=O)c2c(Cl)ccc(-n3c([C@H](Cc4cc(F)cc(F)c4)NC(=O)Cn4nc(C(F)F)c5c4C(F)(F)[C@@H]4C[C@H]54)nc4nc(C5CCC(F)(F)CC5)cc(CN5CCC(F)(F)CC5)c4c3=O)c21` (atropisomer, axis not shown; (P)) [Example 489, N-[(1S)-1-[(3P)-3-[4-chloro-3-methanesulfonamido-1-(3-methoxypropyl)-1H-indazol-7-yl]-7-(4,4-difluorocyclohexyl)-5-[(4,4-difluoropiperidin-1-yl)methyl]-4-oxo-3H,4H-pyrido[2,3-d]pyrimidin-2-yl]-2-(3,5-difluorophenyl)ethyl]-2-[(2S,4R)-9-(difluoromethyl)-5,5-difluoro-7,8-diazatricyclo[4.3.0.0^2,4]nona-1(6),8-dien-7-yl]acetamide]: the EC50 in data set [1] amounted to 0.018 nM. Further, in data set [2], the CC50 at 4 days is greater than 20 nM.
